Source: PubChem BioAssay AID256 (DTP/NCI, 2004)
Values joined by “and” are separate entries in the source; they are usually repeats but may differ in a detail not shown here. Equal entries are not always repeated. Inconclusive results and toxic doses are left out. How the source made its calls: active means survival T/C of 150% or more; inactive means T/C below 125% in these data.

Tested on: CD2F1 mice, L1210 leukemia ip, survival T/C
Test: NCI In Vivo Anticancer Drug Screen. Data for tumor model L1210 Leukemia (intraperitoneal) in CD2F1 (CDF1) mice
Details: higher = longer survival
Procedure, shortened: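 Each value reflects a quotient of treated over vehicle control outcomes in mice with a transplanted tumor.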

[1] = endpoint: mean survival time, dose: 100.0 mg/kg/injection, schedule: Q01DX001 (ip), vehicle: saline
[2] = endpoint: mean survival time, dose: 200.0 mg/kg/injection, schedule: Q01DX001 (ip), vehicle: saline
[3] = endpoint: mean survival time, dose: 100.0 mg/kg/injection, schedule: Q04DX003 (ip), vehicle: saline
[4] = endpoint: mean survival time, dose: 200.0 mg/kg/injection, schedule: Q04DX003 (ip), vehicle: saline
[5] = endpoint: mean survival time, dose: 400.0 mg/kg/injection, schedule: Q04DX003 (ip), vehicle: saline
[6] = endpoint: mean survival time, dose: 100.0 mg/kg/injection, schedule: Q01DX009 (ip), vehicle: saline with Tween-80
[7] = endpoint: mean survival time, dose: 100.0 mg/kg/injection, schedule: Q04DX003 (ip), vehicle: saline with Tween-80
[8] = endpoint: mean survival time, dose: 200.0 mg/kg/injection, schedule: Q01DX009 (ip), vehicle: saline with Tween-80
[9] = endpoint: mean survival time, dose: 200.0 mg/kg/injection, schedule: Q04DX003 (ip), vehicle: saline with Tween-80
[10] = endpoint: mean survival time, dose: 400.0 mg/kg/injection, schedule: Q01DX009 (ip), vehicle: saline with Tween-80
[11] = endpoint: mean survival time, dose: 400.0 mg/kg/injection, schedule: Q04DX003 (ip), vehicle: saline with Tween-80
[12] = endpoint: mean survival time, dose: 25.0 mg/kg/injection, schedule: Q01DX009 (ip), vehicle: saline with Tween-80
[13] = endpoint: mean survival time, dose: 6.25 mg/kg/injection, schedule: Q01DX009 (ip), vehicle: saline with Tween-80
[14] = endpoint: mean survival time, dose: 12.5 mg/kg/injection, schedule: Q01DX009 (ip), vehicle: saline with Tween-80

Measured: T/C

CN(C)CC(CN(C)C)C(=O)O
inactive: endpoint: mean survival time, dose: 50.0 mg/kg/injection, schedule: Q01DX001 (ip), vehicle: saline 103 % of control | [1] 104 % of control | [2] 108 % of control

CN(C)C(c1ccccc1)P(=O)(O)O (configuration not stated)
inactive: [3] 98 % of control | [4] 101 % of control | [5] 98 % of control

Cc1ccc(OS(=O)(=O)c2ccc(C)cc2)cc1
inactive: [6] 97 % of control | [7] 96 % of control | [8] 100 % of control | [9] 93 % of control | [10] 96 % of control | [11] 98 % of control

CCOC(=O)C(C(C)=O)C(=O)c1ccc([N+](=O)[O-])cc1 (configuration not stated)
inactive: [6] 102 % of control | [7] 100 % of control | [8] 101 % of control | [9] 102 % of control | [10] 98 % of control | [11] 100 % of control

COc1ccc(Br)cc1C1OC(=O)c2c(OC)c(OC)cc([N+](=O)[O-])c21 (configuration not stated)
inactive: [7] 92 % of control | [9] 93 % of control

CC(C)(C)OC(=O)N/N=C1\CC2CCC1C2 (configuration not stated)
inactive: [12] 107 % of control

O=C1CC2CC1C1C3CCC(CC3)C21 (configuration not stated)
inactive: endpoint: mean survival time, dose: 3.13 mg/kg/injection, schedule: Q01DX009 (ip), vehicle: saline with Tween-80 86 % of control | [13] 101 % of control | [14] 90 % of control and 98 % of control

OC1(c2ccccc2)CN(Cc2ccccc2)CCO1 (configuration not stated)
inactive: endpoint: mean survival time, dose: 50.0 mg/kg/injection, schedule: Q01DX009 (ip), vehicle: saline 104 % of control | endpoint: mean survival time, dose: 50.0 mg/kg/injection, schedule: Q04DX003 (ip), vehicle: saline 93 % of control | endpoint: mean survival time, dose: 100.0 mg/kg/injection, schedule: Q01DX009 (ip), vehicle: saline 102 % of control | [3] 101 % of control | endpoint: mean survival time, dose: 200.0 mg/kg/injection, schedule: Q01DX009 (ip), vehicle: saline 98 % of control | [4] 102 % of control

C#CC1(OC(=O)Nc2ccc3c(c2)OCO3)CCCCC1
inactive: endpoint: mean survival time, dose: 100.0 mg/kg/injection, schedule: Q01DX001 (ip), vehicle: saline with Tween-80 92 % of control | endpoint: mean survival time, dose: 200.0 mg/kg/injection, schedule: Q01DX001 (ip), vehicle: saline with Tween-80 86 % of control | endpoint: mean survival time, dose: 400.0 mg/kg/injection, schedule: Q01DX001 (ip), vehicle: saline with Tween-80 95 % of control

CC1CN(C(=N)C#N)C(C)CN1C(=N)C#N (configuration not stated)
inactive: [13] 96 % of control | [14] 102 % of control | [12] 105 % of control

CCCOC(=O)c1cc([N+](=O)[O-])cc([N+](=O)[O-])c1Sc1ncnc2nc[nH]c12
inactive: endpoint: mean survival time, dose: 0.63 mg/kg/injection, schedule: Q01DX005 (ip), vehicle: other 102 % of control | endpoint: mean survival time, dose: 1.25 mg/kg/injection, schedule: Q01DX005 (ip), vehicle: other 105 % of control | endpoint: mean survival time, dose: 2.5 mg/kg/injection, schedule: Q01DX005 (ip), vehicle: other 102 % of control | endpoint: mean survival time, dose: 5.0 mg/kg/injection, schedule: Q01DX005 (ip), vehicle: other 105 % of control | endpoint: mean survival time, dose: 10.0 mg/kg/injection, schedule: Q01DX005 (ip), vehicle: other 105 % of control | endpoint: mean survival time, dose: 20.0 mg/kg/injection, schedule: Q01DX005 (ip), vehicle: other 106 % of control | endpoint: mean survival time, dose: 40.0 mg/kg/injection, schedule: Q01DX005 (ip), vehicle: other 113 % of control

Brc1ccc(Br)cc1
inactive: [6] 103 % of control | [8] 100 % of control | [10] 97 % of control

COP(=O)(OC)OCC1OC(n2cnc3c(N)ncnc32)C(O)C1O (configuration not stated)
inactive: endpoint: median survival time, dose: 12.5 mg/kg/injection, schedule: Q01DX005 (ip), vehicle: water 96 % of control | endpoint: median survival time, dose: 25.0 mg/kg/injection, schedule: Q01DX005 (ip), vehicle: water 96 % of control | endpoint: median survival time, dose: 50.0 mg/kg/injection, schedule: Q01DX005 (ip), vehicle: water 102 % of control | endpoint: median survival time, dose: 100.0 mg/kg/injection, schedule: Q01DX005 (ip), vehicle: water 103 % of control | endpoint: median survival time, dose: 200.0 mg/kg/injection, schedule: Q01DX005 (ip), vehicle: water 100 % of control

O=S(=O)(Cl)c1ccc(F)cc1
inactive: [1] 106 % of control | [3] 101 % of control | [2] 109 % of control | [4] 102 % of control | endpoint: mean survival time, dose: 400.0 mg/kg/injection, schedule: Q01DX001 (ip), vehicle: saline 103 % of control | [5] 98 % of control
